# Data: patent US5219884A, “Immunosuppressant” (Taito Co., Ltd., priority 1990, dated 1993)
# Read-outs that look alike come from different tables or passages of the source.
# Tests used:
# [1] = tested on: mouse allogenic mixed lymphocyte reaction (BALB/c responder, C57BL/6 stimulator spleen cells); assay: mouse allogenic mixed lymphocyte reaction (MLR), blastogenesis by 3H-thymidine uptake; type: cell-based; conditions: for inhibition at 0.001 µg/mL / inhibition at 0.01 µg/mL / inhibition at 0.1 µg/mL: Mus musculus, Lymphocyte, read-out: Suppression
# Experimental: The immunosuppressive activity of the compounds (I) and their lactones was assayed by using mouse allogenic mixed lymphocyte reaction (hereinafter sometimes abbreviated as MLR). Mouse allogenic MLR was carried out by mixed culture of the BALB/c mouse (H-2^d) spleen cells as the responder cells and the mitomycin C-treated C57BL/6 (H-2^b) spleen cells as the stimulator cells in equal amounts.
# The responder cells were prepared as follows: The spleen was resected from 5- to 6-week-old male BALB/c mice, and single cell suspension of spleen cells was prepared by using the RPMI1640 culture medium (containing 60 μg/ml of kanamycin sulfate, 2 mM of L-glutamine, 10 mM of N-2-hydroxyethylpiperazine-N'-2-ethanesulfonate (HEPES) and 0.1% sodium hydrogencarbonate) to which heat-inactivated fetal calf serum (hereinaftersometimes abbreviated as FCS) had been added to 5%. After hemolytic treatment, the cell suspension was adjusted to a concentration of 10^7 cells/ml by using the RPMI1640 culture medium supplemented with 10^-4 M 2-mercaptoethanol and 20% FCS, and was used as the responder cell suspension.
# The stimulator cells were prepared as follows:
# The spleen was resected from 5- to 6-week-old male C57BL/6 mice, and single cell suspension of spleen cells was prepared by using the RPMI1640 culture medium. After hemolytic treatment, the cells were treated with 40 μg/ml of mitomycin C at 37° C. for 60 minutes. After washing three times, the concentration of the cell suspension was adjusted to 10^7 cells/ ml by using the RPMI1640 culture medium supplemented with 10^-4 M 2-mercaptoethanol and 20% FCS, and was used as the stimulator cell suspension.
# Fifty μl of the responder cell suspension, 50μl of the stimulator cell suspension prepared by the above method, and 100 μl of the test substance were placed in 96-well microculture plates, and were cultured at 37° C. in an atmosphere of 5% carbon dioxide for 4 days.
# The blastogenesis of lymphocytes was assayed by a method of ^3 H-thymidine uptake as an index. That is, after termination of the culture, 0.5 μCi/well of ^3 H-thymidine was added and cultured for 4 hours. Cells were harvested by a cell-harvester, and the radioactivity incorporated into the cells was determined by a liquid scintillation counter to obtain the index of blastogenesis of lymphocytes in the mouse allogenic MLR. The suppression of the mouse allogenic MLR was evaluated by calculating the percent suppression by the following formula. [formula]
# The test substance was dissolved in methanol or suspended in a mixture of methanol and acetic acid, and then diluted with the RPMI1640 culture medium.
# [2] = tested on: IL2-dependent mouse cell line CTLL-2; assay: suppression of IL-2 induced 3H-thymidine incorporation of CTLL-2; type: cell-based; conditions: 72 hrs, second run (control 30168 cpm); for inhibition at 0.1 µg/mL / inhibition at 1 µg/mL: Mus musculus, CTLL-2; for inhibition at 0.1 µg/mL: read-out: Suppression
# Experimental: IL2-dependent mouse cell line CTLL-2 cells were suspended in the RPMI1640 culture medium supplemented with 30% FCS to a concentration of 2×10^5 cells/ml. The suspension (50 μl) and 50 μl of concanavalin A-stimulated rat spleen cell culture supernatants containing IL2 were added to each well of 96-well microculture plates in which 100 μl of the test substance had been placed. After culturing at 37° C. in an atmosphere of 5% carbon dioxide for 20, 44, or 68 hours, 0.5 μCi/well of ^3 H-thymidine was added, and cultured for 4 hours under the same conditions. After termination of the culture, the cells were harvested by a cell harvester, and the radioactivity incorporated into the cells was measured by a liquid scintillation counter.
# [3] = cytotoxicity to mouse L929 cells; type: cell-based; conditions: mouse, l929 cells, read-out: Suppression
# Experimental: (§1) Cytotoxicity to mouse L929 cells was assayed as follows:
# (§2) L929 cells were suspended to the concentration of 1.5×10^5 cells/ml in the F12 culture medium supplemented with 10% FCS. One hundred μl of the suspension was added to each well of 96-well microculture plates, and cultured at 37° C. in an atmosphere of 5% carbon dioxide for 24 hours, to which 100 μl of the test solution was added and cultured for further 48 hours. After the culture, 100 μl of the supernatant was removed and the absorbancy at 550 nm was measured in the same way as the colormetry using MTT in Experimental Example 1. The percent suppression was calculated by the following formula used as the index of cytotoxicity. [formula]
# mouse L929 cells = assay: cytotoxicity to mouse L929 cells; type: cell-based; conditions: 550 nm
# Experimental: as §1, §2
# in vitro = type: cell-based, human; conditions: human, read-out: Suppression
# Experimental: (§3) Cytotoxicity to human tumor cell lines was examined as follows:
# (§4) Cells of human cell lines, K562, MOLT4, U937, HL60, KATOIII, KB, PC-6, PC-14 and CCRF-CEM were separately suspended to the concentration of 2×10^5 cells/ml in the RPMI1640 culture medium supplemented with 20% FCS. Fifty μl of this suspension was added to each well of 96-well microculture plates to which 50 μl of the test solution had been added. After culturing at 37° C. in an atmosphere of 5% carbon dioxide for 72 hours, the absorbancy at 550 nm was measured in the same way as the colorimetry using MTT in Experimental Example 1, and the percent suppression was calculated in the same manner as in Experimental Example 14, which was used as the index of cytotoxicity.
# K562 = assay: in vitro; type: cell-based, human
# Experimental: as §3, §4
# [4] = cytotoxicity to tumor cell line MOLT4; type: cell-based, human; conditions: human, molt4 cells, read-out: Suppression
# Experimental: as §3, §4
# MOLT4 = assay: cytotoxicity to tumor cell line MOLT4; type: cell-based, human
# Experimental: as §3, §4
compound,measurement,setting,value
CCCCCCC(=O)CCCCCCCCCC1OC(=O)C(N)(CO)C1O (centres unmarked) [Example 7],3H-thymidine uptake,[1]; 0.001 μg/ml,24446 cpm
same,3H-thymidine uptake,[1]; 0.01 μg/ml,34378 cpm
same,3H-thymidine uptake,[1]; 0.1 μg/ml,3546 cpm
same,inhibition at 0.001 µg/mL,[1]; 0.001 μg/ml,13.4%
same,inhibition at 0.01 µg/mL,[1]; 0.01 μg/ml,0%
same,inhibition at 0.1 µg/mL,[1]; 0.1 μg/ml,100%
same,3H-thymidine uptake,[2]; 0.1 μg/ml,37960 cpm
same,3H-thymidine uptake,[2]; 1 μg/ml,2088 cpm
same,inhibition at 0.1 µg/mL,[2]; 0.1 μg/ml,0%
same,inhibition at 1 µg/mL,[2]; 1 μg/ml,93.3%
same,cytotoxicity at 48 h,[3]; 0.1 μg/ml,0%
same,cytotoxicity at 48 h,[3]; 1 μg/ml,0%
same,cytotoxicity at 48 h,[3]; 10 μg/ml,0%
same,Absorbancy,mouse L929 cells; 0.1 μg/ml,0.799
same,Absorbancy,mouse L929 cells; 1 μg/ml,0.811
same,Absorbancy,mouse L929 cells; 10 μg/ml,0.696
same,cytotoxicity at 72 h,"in vitro; ccrf-cem cells, 0.1 μg/ml",1.6%
same,cytotoxicity at 72 h,"in vitro; ccrf-cem cells, 1.0 μg/ml",5.6%
same,cytotoxicity at 72 h,"in vitro; ccrf-cem cells, 10.0 μg/ml",15.2%
same,cytotoxicity at 72 h,"in vitro; hl60 cells, 0.1 μg/ml",17.2%
same,cytotoxicity at 72 h,"in vitro; hl60 cells, 1.0 μg/ml",18.2%
same,cytotoxicity at 72 h,"in vitro; hl60 cells, 10.0 μg/ml",18%
same,cytotoxicity at 72 h,"in vitro; k562 cells, 0.1 μg/ml",0%
same,cytotoxicity at 72 h,"in vitro; k562 cells, 1.0 μg/ml",13.8%
same,cytotoxicity at 72 h,"in vitro; k562 cells, 10.0 μg/ml",21.6%
same,cytotoxicity at 72 h,"in vitro; kb cells, 0.1 μg/ml",0.5%
same,cytotoxicity at 72 h,"in vitro; kb cells, 1.0 μg/ml",4.8%
same,cytotoxicity at 72 h,"in vitro; kb cells, 10.0 μg/ml",32.5%
same,cytotoxicity at 72 h,"in vitro; pc-14 cells, 0.1 μg/ml",5.9%
same,cytotoxicity at 72 h,"in vitro; pc-14 cells, 1.0 μg/ml",10.5%
same,cytotoxicity at 72 h,"in vitro; pc-14 cells, 10.0 μg/ml",33.5%
same,cytotoxicity at 72 h,"in vitro; u937 cells, 0.1 μg/ml",0%
same,cytotoxicity at 72 h,"in vitro; u937 cells, 1.0 μg/ml",0%
same,cytotoxicity at 72 h,"in vitro; u937 cells, 10.0 μg/ml",5.5%
same,Absorbancy,K562; 0.1 μg/ml,0.387
same,Absorbancy,K562; 1.0 μg/ml,0.332
same,Absorbancy,K562; 10.0 μg/ml,0.302
same,cytotoxicity at 72 h,[4]; 0.1 μg/ml,26.2%
same,cytotoxicity at 72 h,[4]; 1.0 μg/ml,15.2%
same,cytotoxicity at 72 h,[4]; 10.0 μg/ml,31%
same,Absorbancy,MOLT4; 0.1 μg/ml,0.107
same,Absorbancy,MOLT4; 1.0 μg/ml,0.123
same,Absorbancy,MOLT4; 10.0 μg/ml,0.100
CCCCCCC(O)CCCCCC/C=C/CC1OC(=O)C(N)(CO)C1O (centres unmarked) [Example 8],3H-thymidine uptake,[1]; 0.001 μg/ml,22815 cpm
same,3H-thymidine uptake,[1]; 0.01 μg/ml,3081 cpm
same,3H-thymidine uptake,[1]; 0.1 μg/ml,1586 cpm
same,inhibition at 0.001 µg/mL,[1]; 0.001 μg/ml,21.1%
same,inhibition at 0.01 µg/mL,[1]; 0.01 μg/ml,100%
same,inhibition at 0.1 µg/mL,[1]; 0.1 μg/ml,100%
same,3H-thymidine uptake,[2]; 0.1 μg/ml,7262 cpm
same,3H-thymidine uptake,[2]; 1 μg/ml,1591 cpm
same,inhibition at 0.1 µg/mL,[2]; 0.1 μg/ml,76.1%
same,inhibition at 1 µg/mL,[2]; 1 μg/ml,94.9%
same,cytotoxicity at 48 h,[3]; 1 μg/ml,0%
same,cytotoxicity at 48 h,[3]; 10 μg/ml,0%
same,cytotoxicity at 48 h,[3]; 100 μg/ml,96%
same,Absorbancy,mouse L929 cells; 1 μg/ml,0.817
same,Absorbancy,mouse L929 cells; 10 μg/ml,0.738
same,Absorbancy,mouse L929 cells; 100 μg/ml,0.023
same,cytotoxicity at 72 h,"in vitro; ccrf-cem cells, 0.1 μg/ml",0%
same,cytotoxicity at 72 h,"in vitro; ccrf-cem cells, 1.0 μg/ml",0%
same,cytotoxicity at 72 h,"in vitro; ccrf-cem cells, 10.0 μg/ml",3.9%
same,cytotoxicity at 72 h,"in vitro; hl60 cells, 0.1 μg/ml",16.9%
same,cytotoxicity at 72 h,"in vitro; hl60 cells, 1.0 μg/ml",14.8%
same,cytotoxicity at 72 h,"in vitro; hl60 cells, 10.0 μg/ml",19.9%
same,cytotoxicity at 72 h,"in vitro; k562 cells, 0.1 μg/ml",15.1%
same,cytotoxicity at 72 h,"in vitro; k562 cells, 1.0 μg/ml",16.6%
same,cytotoxicity at 72 h,"in vitro; k562 cells, 10.0 μg/ml",22.6%
same,cytotoxicity at 72 h,"in vitro; kb cells, 0.1 μg/ml",0%
same,cytotoxicity at 72 h,"in vitro; kb cells, 1.0 μg/ml",0%
same,cytotoxicity at 72 h,"in vitro; kb cells, 10.0 μg/ml",3.3%
same,cytotoxicity at 72 h,"in vitro; pc-14 cells, 0.1 μg/ml",4.6%
same,cytotoxicity at 72 h,"in vitro; pc-14 cells, 1.0 μg/ml",10.3%
same,cytotoxicity at 72 h,"in vitro; pc-14 cells, 10.0 μg/ml",31.2%
same,cytotoxicity at 72 h,"in vitro; u937 cells, 0.1 μg/ml",0%
same,cytotoxicity at 72 h,"in vitro; u937 cells, 1.0 μg/ml",0.5%
same,cytotoxicity at 72 h,"in vitro; u937 cells, 10.0 μg/ml",12%
same,Absorbancy,K562; 0.1 μg/ml,0.327
same,Absorbancy,K562; 1.0 μg/ml,0.321
same,Absorbancy,K562; 10.0 μg/ml,0.298
same,cytotoxicity at 72 h,[4]; 0.1 μg/ml,2.1%
same,cytotoxicity at 72 h,[4]; 1.0 μg/ml,5.5%
same,cytotoxicity at 72 h,[4]; 10.0 μg/ml,8.3%
same,Absorbancy,MOLT4; 0.1 μg/ml,0.142
same,Absorbancy,MOLT4; 1.0 μg/ml,0.137
same,Absorbancy,MOLT4; 10.0 μg/ml,0.133
